The conditions of data set [1]: subchronic.
Where [2] appears, read: subchronic, duration: 90 days, oral, diet.

One may read the NOAEL as the highest tested level that showed no adverse finding.

SMILES strings stand for the structures.

For the compound `CCCc1ccn(-c2ccccc2)n1` [1H-Pyrazole, 1-phenyl-3(or 5)-propyl-], the no observed adverse effect level (NOAEL) in data set [1] came to 25 mg/kg-day. As to `C[S+](C)CC[C@H](N)C(=O)O.[Cl-]` [L-Methylmethionine sulfonium chloride], the NOAEL in the data set with Rattus norvegicus (chronic, duration: 14 weeks, oral, diet, M/F, Wistar, no effects) was determined as 250 mg/kg-day.

Consider `COc1cnc(C)s1` [Thiazole, 5-methoxy-2-methyl-], for which the NOAEL in data set [1] (duration: 90 days) is 8.6 mg/kg-day. Consider `CC(=O)c1nccs1` [2-Acetylthiazole], for which the NOAEL in the data set on Rattus norvegicus (setting [2]) amounted to 50 mg/kg-day.

In turn, `CCC(=O)c1nccs1` [2-Propionylthiazole] yielded an NOAEL in the data set on Rattus norvegicus (setting [2]) of 50 mg/kg-day. Turning to `CC(=O)c1ccnc(C)n1` [Ethanone, 1-(2-methyl-4-pyrimidinyl)-], in the data set on Rattus norvegicus (subchronic, duration: 90 days, Sprague-Dawley), the NOAEL worked out at 1 mg/kg-day. `COCCOC(C)OCc1ccccc1` (stereo unspecified) [{[1-(2-Methoxyethoxy)ethoxy]methyl}benzene] displayed an NOAEL in the data set with Rattus norvegicus (chronic) of 6 mg/kg-day. In the data set with Rattus norvegicus (setting [2]), `c1csc(SSc2cccs2)c1` [2-Thienyl disulfide] registered an NOAEL of 0.29 mg/kg-day.

In the data set on Rattus norvegicus (subchronic, duration: 90 days), `Cc1ncc2c(n1)CSC2` [5,7-Dihydro-2-methylthieno[3,4-d]pyrimidine] came in with an NOAEL of 6.6 mg/kg-day. In the data set on Rattus norvegicus (subchronic, duration: 90 days, oral), `Cc1ccc2c(c1)OC(=O)C2C` (stereo unspecified) [3,6-Dimethyl-1-benzofuran-2(3H)-one] returned an NOAEL of 5.42 mg/kg-day. In the data set with Rattus norvegicus (chronic), `COCCO` [Methoxyethanol] showed an NOAEL of 6 mg/kg-day.

The values are drawn from EPA's ToxValDB 9.5 (doi:10.2903/j.efsa.2011.1924).
